Where a name gives a salt, the structure may show the parent alone.
Tests used:
[1] = target: T1, α-1A adrenoreceptor (rat vas deferens) (Rattus norvegicus, UniProt P43140); assay: Functional antagonism: inhibition of phenylephrine-induced contraction of rat vas deferens; type: cell-based; details: rat vas deferens, phenylephrine-induced contraction, Schild plot
T1 construct: from tissue; host or cells: rat vas deferens
T1 sequence (P43140 1-466): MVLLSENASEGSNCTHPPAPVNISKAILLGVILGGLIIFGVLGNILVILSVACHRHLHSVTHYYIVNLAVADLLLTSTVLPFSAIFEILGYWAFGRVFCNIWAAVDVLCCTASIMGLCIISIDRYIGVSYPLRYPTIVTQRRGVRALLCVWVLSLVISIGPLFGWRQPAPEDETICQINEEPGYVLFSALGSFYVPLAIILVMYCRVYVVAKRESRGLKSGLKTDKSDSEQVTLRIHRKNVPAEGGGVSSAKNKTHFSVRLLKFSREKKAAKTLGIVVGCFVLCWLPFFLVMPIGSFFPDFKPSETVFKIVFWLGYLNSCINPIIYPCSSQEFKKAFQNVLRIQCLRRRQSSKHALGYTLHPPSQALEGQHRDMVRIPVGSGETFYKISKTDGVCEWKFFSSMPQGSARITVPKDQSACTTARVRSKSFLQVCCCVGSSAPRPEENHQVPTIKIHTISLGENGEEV
Description: (§1) Functional assays indicative of pharmacologically defined α-1 adrenoreceptors were used to further characterize compounds. Inhibition of phenylephrine (PE)-induced contraction of canine prostate smooth muscle can be correlated with α-1A adrenoreceptor activation. […] For each of these models, agonist dose response curves were repeated against increasing concentrations of test agent to derive a Schild plot [log ([…]) against log (molarity of test agent)] to determine the pA2.

[2] = target: T2, α-1B adrenoreceptor (rat spleen) (Rattus norvegicus, UniProt P15823); assay: Functional antagonism: inhibition of phenylephrine-induced contraction of rat spleen; type: cell-based; details: rat spleen, phenylephrine-induced contraction, Schild plot
T2 construct: from tissue; host or cells: rat spleen
T2 sequence (P15823 1-515): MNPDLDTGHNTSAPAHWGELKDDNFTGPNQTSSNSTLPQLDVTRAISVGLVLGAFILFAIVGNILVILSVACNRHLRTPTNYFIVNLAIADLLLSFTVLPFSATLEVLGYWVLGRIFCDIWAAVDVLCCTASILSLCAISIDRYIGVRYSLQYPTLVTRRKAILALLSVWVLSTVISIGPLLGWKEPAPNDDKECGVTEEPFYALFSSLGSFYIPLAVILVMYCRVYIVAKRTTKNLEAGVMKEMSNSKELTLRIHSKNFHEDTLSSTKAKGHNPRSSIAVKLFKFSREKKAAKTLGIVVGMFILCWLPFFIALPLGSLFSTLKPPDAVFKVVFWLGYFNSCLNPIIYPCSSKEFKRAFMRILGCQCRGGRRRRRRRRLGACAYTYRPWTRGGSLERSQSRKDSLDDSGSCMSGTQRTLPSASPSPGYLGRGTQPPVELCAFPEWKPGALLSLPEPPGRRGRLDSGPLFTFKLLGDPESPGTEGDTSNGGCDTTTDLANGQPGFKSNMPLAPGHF
Description: as §1

[3] = target: T3, α-1 Adrenoceptors (Rat Aorta) (Rattus norvegicus, UniProt P23944); assay: Functional antagonism at α-1 adrenoceptors, rat aorta; type: cell-based; details: read-out: In Vitro Characterization (pA2) Rat Aorta (converted)
T3 construct: Rat Aorta; from tissue; host or cells: rat aorta
T3 sequence (P23944 1-561): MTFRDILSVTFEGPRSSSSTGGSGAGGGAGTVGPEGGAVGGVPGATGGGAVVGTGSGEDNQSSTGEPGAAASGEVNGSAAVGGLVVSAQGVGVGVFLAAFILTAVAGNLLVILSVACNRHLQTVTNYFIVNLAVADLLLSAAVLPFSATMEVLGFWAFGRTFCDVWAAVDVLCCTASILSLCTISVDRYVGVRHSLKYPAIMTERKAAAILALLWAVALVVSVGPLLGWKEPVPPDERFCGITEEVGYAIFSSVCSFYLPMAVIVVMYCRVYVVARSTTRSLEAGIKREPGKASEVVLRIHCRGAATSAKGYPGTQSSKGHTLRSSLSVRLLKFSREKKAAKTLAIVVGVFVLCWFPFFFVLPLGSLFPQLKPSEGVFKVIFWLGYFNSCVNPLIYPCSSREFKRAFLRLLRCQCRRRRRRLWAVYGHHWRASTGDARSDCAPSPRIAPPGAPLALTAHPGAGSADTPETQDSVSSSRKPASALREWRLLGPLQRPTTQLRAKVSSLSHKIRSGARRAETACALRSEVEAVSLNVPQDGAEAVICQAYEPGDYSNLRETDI
Summary of the method: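 Phenylephrine dose-response curves for contraction were repeated against increasing test-agent concentrations. pA2 was derived by Schild plot [[…] vs log molarity of test agent].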

α-1 adrenoreceptor = details: cited from earlier work
[4] = antihypertensive treatment; cited from earlier work

For `COc1cccc2c1[C@@H]1CN(CCCCn3c(=O)[nH]c4c(sc5c(Cl)nccc54)c3=O)C[C@@H]1CO2` [Example 53, 3-[4-((3aR,9bR)-cis-9-Methoxy-1,2,3,3a,4,9b-hexahydro-[1]-benzopyrano[3,4-c]pyrrol-2-yl)butyl]-6-chloro-pyrido[4',3':4,5]thieno[3,2-d]pyrimidine-2,4(1H,3H)-dione], the “In Vitro Characterization (pA2) Rat Vas” value [1] was 9.31, the “In Vitro Characterization (pA2) Rat Spleen” value [2] was 7.2 and the Kb [3] was 1070 pM.

With `COc1ccc2sc3c(=O)n(CCCCN4C[C@@H]5COc6cccc(OC)c6[C@@H]5C4)c(=O)[nH]c3c2n1` [Example 30, 3-[4-((3aR,9bR)-cis-9-Methoxy-1,2,3,3a,4,9b-hexahydro-[1]-benzopyrano[3,4-c]pyrrol-2-yl)butyl]-8-methoxy-pyrido[2',3':4,5]thieno[3,2-d]pyrimidine-2,4(1H,3H)-dione hydrochloride] the “In Vitro Characterization (pA2) Rat Vas” value [1] was 9.6 and the Kb [3] was 468 pM.

For `COc1cc2nc(N3CCN(C(=O)c4ccco4)CC3)nc(N)c2cc1OC` [Prazosin, prazosin], the “dose limiting side effects” value (α-1 adrenoreceptor; BPH treatment) is listed as “hypotension, dizziness, and muscle fatigue”, the “urinary flow rates and subjective symptom scores” value (α-1 adrenoreceptor; longer term studies, BPH) is listed as “significant improvements in urinary flow rates and subjective symptom scores” and the “urinary incontinence in women” value [4] is listed as “urinary incontinence developed in women”.

With `COc1cccc2c1[C@@H]1CN(CCCCn3c(=O)[nH]c4c(sc5ccncc54)c3=O)C[C@H]1CO2` [Example 41, 3-[4-((3aR,9bR)-trans-9-Methoxy-1,2,3,3a,4,9b-hexahydro-[1]-benzopyrano[3,4-c]pyrrol-2-yl)butyl]-pyrido[3',4':4,5]thieno[3,2-d]pyrimidine-2,4(1H,3H)-dione hydrochloride] the “In Vitro Characterization (pA2) Rat Vas” value [1] was 9.45 and the Kb [3] was 17 pM.

With `COc1cccc2c1[C@@H]1CN(CCCCn3c(=O)[nH]c4c(sc5ccncc54)c3=O)C[C@@H]1CO2` [Example 28, 3-[4-((3aR,9bR)-cis-9-Methoxy-1,2,3,3a,4,9b-hexahydro-[1]-benzopyrano[3,4-c]pyrrol-2-yl)butyl]-pyrido[3',3':4,5]thieno[3,2-d]pyrimidine-2,4(1H,3H)-dione hydrochloride] the “In Vitro Characterization (pA2) Rat Vas” value [1] was 9.39 and the Kb [3] was 195 pM.
